# Assay results: US9751885B2, “Cyclopropanamine compound and use thereof” (Takeda Pharmaceutical Company Limited, priority 2012, dated 2017)
# Structures can show the parent of a compound that is named as a salt.
# Experiments:
# [1] = biological target: MAO-A enzyme (Homo sapiens (Human), UniProt P21397); test: Measurement of MAO-A inhibitory activity (MAO-Glo Assay); assay type: biochemical
# [2] = biological target: MAO-B enzyme (Homo sapiens (Human), UniProt P27338); test: Measurement of MAO-B inhibitory activity (MAO-Glo Assay); conditions: read-out: MAO-B IC50 value;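 also: luminescence read-out, compound preincubated 10 min with enzyme then reacted 60 min at room temperature, inhibition relative to enzyme reaction without compound, blank lacking enzyme and compound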
# Sequence of MAO-B enzyme (P27338 whole entry): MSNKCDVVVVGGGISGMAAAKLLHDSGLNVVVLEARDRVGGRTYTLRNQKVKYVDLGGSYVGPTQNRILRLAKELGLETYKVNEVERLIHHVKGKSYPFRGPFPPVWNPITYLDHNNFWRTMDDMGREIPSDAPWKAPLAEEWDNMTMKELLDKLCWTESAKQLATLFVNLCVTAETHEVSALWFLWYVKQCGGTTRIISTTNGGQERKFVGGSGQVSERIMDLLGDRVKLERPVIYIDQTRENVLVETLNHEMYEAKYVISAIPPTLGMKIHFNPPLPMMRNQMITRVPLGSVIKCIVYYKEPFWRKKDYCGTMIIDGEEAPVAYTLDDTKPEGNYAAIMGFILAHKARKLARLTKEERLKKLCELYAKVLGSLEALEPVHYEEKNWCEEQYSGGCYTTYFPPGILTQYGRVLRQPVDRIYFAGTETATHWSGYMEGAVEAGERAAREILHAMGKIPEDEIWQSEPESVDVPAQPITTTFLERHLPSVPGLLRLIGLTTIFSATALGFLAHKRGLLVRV
# Protocol: The MAO-B inhibitory activity evaluation described below followed the protocol of MAO-Glo (registered trademark) Assay of Promega KK.
# A test compound dissolved in 4% DMSO was added by 12.5 μL to 25 μL reaction solution (100 mM HEPES (pH 7.5), 5% glycerol, 10% DMSO) containing 400 ng of MAO-B enzyme (Sigma-Aldrich Co. LLC.), and the mixture was reacted at room temperature for 10 min. […] After reaction at room temperature for 60 min, Luciferine detection reagent (Promega KK) (50 μL) was added to terminate the reaction. After reaction at room temperature for 20 min with stirring, the luminescence was measured by Envision (PerkinElmer). The MAO-B inhibitory rate (%) of the test compound was calculated by the following formula. inhibitory rate(%)=(1−(test compound count−blank)÷(control−blank))×100
# The count of the MAO-B enzyme reaction mixture under compound non-addition conditions is indicated as control, and the count under compound non-addition and MAO-B enzyme non-addition conditions is indicated as blank.
# [3] = biological target: human LSD1(172-833) (Homo sapiens (Human), UniProt O60341); test: Measurement of LSD1 inhibitory activity (time-resolved fluorescence, biotin-histone H3 mono methylated K4 peptide); assay type: biochemical
# Protocol: When the turbidity reached 500 Klett units, the culture temperature was changed to 16° C., IPTG (Isopropyl β-D-1-thiogalactopyranoside) having a final concentration of 0.5 mM was added to induce expression, and the cells were cultured further for 14 hr. The culture medium was centrifuged at 6,000 g for 15 min, and Escherichia coil pellets were recovered.
# Using Branson ultrasonic disintegrator, the suspension was disrupted by ultrasonication for 3 min, and centrifuged at 33,000 g for 60 min, and the supernatant was recovered. […] It was concentrated to 10 mL with AmiconUltra (NWCO 30K) (Millipore Japan), and purified with HiLoad 26/60 Superdex 200 pg column (GE Healthcare) equilibrated with Buffer A to give hLSD1 purified product (8.4 mg). The protein concentration of hLSD1 was measured by BCA Protein Assay Kit (Thermo Fisher Scientific K.K.) using bovine serum albumin as the standard.
# (5) Measurement of LSD1 Inhibitory Activity
# After reaction at room temperature for 5 min, 1 mM 2-PCPA solution was added 5 μL to terminate the reaction. A detection solution ([…] potassium fluoride, 0.1% BSA) containing europium-labeled anti-histone H3 antibody (Wako Pure Chemical Industries, Ltd.) and Streptavidin-XL665 (Cisbio) was further added by 5 μL, and the mixture was left standing for 60 min.
# Sequence of MAO-A enzyme (P21397 whole entry): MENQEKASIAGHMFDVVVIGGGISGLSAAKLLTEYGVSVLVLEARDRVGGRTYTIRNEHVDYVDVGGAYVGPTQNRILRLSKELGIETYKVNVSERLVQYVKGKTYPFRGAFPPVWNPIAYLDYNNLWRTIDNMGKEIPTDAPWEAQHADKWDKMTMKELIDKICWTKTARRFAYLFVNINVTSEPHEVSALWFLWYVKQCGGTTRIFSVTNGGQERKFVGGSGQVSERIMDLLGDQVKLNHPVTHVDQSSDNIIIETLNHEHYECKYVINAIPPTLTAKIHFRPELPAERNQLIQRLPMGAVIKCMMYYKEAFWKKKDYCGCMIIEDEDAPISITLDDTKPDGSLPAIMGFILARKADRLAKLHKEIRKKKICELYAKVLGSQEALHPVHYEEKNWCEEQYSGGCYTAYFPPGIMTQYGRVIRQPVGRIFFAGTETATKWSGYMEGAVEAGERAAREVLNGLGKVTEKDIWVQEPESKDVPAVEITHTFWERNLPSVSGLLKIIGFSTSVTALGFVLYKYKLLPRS
Structure (SMILES),IC50 [1] [µM],IC50 [2] [µM],IC50 [3] [µM]
"Cc1ccsc1CN[C@@H]1C[C@H]1c1ccc(C(=O)NCc2ccccc2)cc1 (relative stereo) [Example 47, N-benzyl-4-(trans-2-(((3-methyl-2-thienyl)methyl)amino)cyclopropyl)benzamide trifluoroacetate]",5,> 10,< 0.1
"COc1cccc(CN[C@@H]2C[C@H]2c2ccc(C(=O)NCc3ccccc3)cc2)c1 (relative stereo) [Example 37, N-benzyl-4-(trans-2-((3-methoxybenzyl)amino)cyclopropyl)benzamide trifluoroacetate]",4.5,> 10,< 0.1
"O=C(Nc1cnn(CC2CC2)c1)c1cccc([C@@H]2C[C@H]2NC2CCC(F)(F)CC2)c1 (relative stereo) [Example 204, N-(1-(cyclopropylmethyl)-1H-pyrazol-4-yl)-3-(trans-2-((4,4-difluorocyclohexyl)amino)cyclopropyl)benzamide dihydrochloride]",> 10,> 10,< 0.1
"CN(C(=O)c1ccc([C@@H]2C[C@H]2N)cc1)c1ccccc1 (relative stereo) [Example 3, 4-(trans-2-aminocyclopropyl)-N-methyl-N-phenylbenzamide hydrochloride]",0.25,> 10,< 0.1
"O=C(Nc1cccc(F)c1)c1cccc([C@@H]2C[C@H]2NCC2CC2)c1 (relative stereo) [Example 122, 3-(trans-2-((cyclopropylmethyl)amino)cyclopropyl)-N-(3-fluorophenyl) benzamide trifluoroacetate]",> 10,> 10,< 0.1
"O=C(Nc1ccc(-c2ncccn2)cc1)c1ccc([C@@H]2C[C@H]2NCC2CC2)cc1 (relative stereo) [Example 52, 4-(trans-2-((cyclopropylmethyl)amino)cyclopropyl)-N-(4-(pyrimidin-2-yl)phenyl)benzamide dihydrochloride]",> 10,> 10,< 0.1
"O=C(Nc1cccc(-c2ncccn2)c1)c1cccc([C@@H]2C[C@H]2NCC2CC2)c1 (relative stereo) [Example 81, 3-(trans-2-((cyclopropylmethyl)amino)cyclopropyl)-N-(3-(pyrimidin-2-yl)phenyl)benzamide dihydrochloride]",5.2,> 10,< 0.1
"O=C(NCc1ccccc1)c1ccc([C@@H]2C[C@H]2NCc2ccc(C(F)(F)F)cc2)cc1 (relative stereo) [Example 38, N-benzyl-4-(trans-2-((4-(trifluoromethyl)benzyl)amino)cyclopropyl)benzamide trifluoroacetate]",2.2,> 10,< 0.1
"Cc1ncc(NC(=O)c2cccc([C@@H]3C[C@H]3NC3CCC(F)(F)CC3)c2)s1 (relative stereo) [Example 211, 3-(trans-2-((4,4-difluorocyclohexyl)amino)cyclopropyl)-N-(2-methyl-1,3-thiazol-5-yl)benzamide dihydrochloride]",> 10,> 10,< 0.1
"CCN1C(=O)COc2cc(NC(=O)c3cccc([C@@H]4C[C@H]4NCC4CC4)c3)ccc21 (relative stereo) [Example 149, 3-(trans-2-((cyclopropylmethyl)amino)cyclopropyl)-N-(4-ethyl-3-oxo-3,4-dihydro-2H-1,4-benzoxazin-7-yl)benzamide trifluoroacetate]",> 10,> 10,< 0.1
"O=C(NCc1ccccc1)c1ccc([C@@H]2C[C@H]2NCc2ccc(-c3cnccn3)cc2)cc1 (relative stereo) [Example 45, N-benzyl-4-(trans-2-((4-(pyrazin-2-yl)benzyl)amino)cyclopropyl)benzamide bis(trifluoroacetate)]",1.7,> 10,< 0.1
"CN1CCC(N[C@@H]2C[C@H]2c2cccc(C(=O)Nc3cnn(CC4CC4)c3)c2)CC1 (relative stereo) [Example 202, N-(1-(cyclopropylmethyl)-1H-pyrazol-4-yl)-3-(trans-2-((1-methylpiperidin-4-yl)amino)cyclopropyl)benzamide trihydrochloride]",> 10,> 10,< 0.1
"O=C(Nc1ccc2ncsc2c1)c1cccc([C@@H]2C[C@H]2NCC2CC2)c1 (relative stereo) [Example 144, N-(1,3-benzothiazol-6-yl)-3-(trans-2-((cyclopropylmethyl)amino)cyclopropyl)benzamide trifluoroacetate]",> 10,> 10,< 0.1
"Cc1cc(NC(=O)c2cccc([C@@H]3C[C@H]3NC3CCC(F)(F)CC3)c2)on1 (relative stereo) [Example 216, 3-(trans-2-((4,4-difluorocyclohexyl)amino)cyclopropyl)-N-(3-methyl-1,2-oxazol-5-yl)benzamide hydrochloride]",> 10,> 10,< 0.1
"O=C(Nc1cnn(-c2ccc(F)cc2)c1)c1cccc([C@@H]2C[C@H]2NC2CCOCC2)c1 (relative stereo) [Example 196, N-(1-(4-fluorophenyl)-1H-pyrazol-4-yl)-3-(trans-2-(tetrahydro-2H-pyran-4-ylamino)cyclopropyl)benzamide dihydrochloride]",> 10,> 10,< 0.1
"O=C(Nc1cccc(C(F)(F)F)c1)c1ccc([C@@H]2C[C@H]2NC2CCS(=O)(=O)CC2)cc1 (relative stereo) [Example 62, 4-(trans-2-((1,1-dioxidotetrahydro-2H-thiopyran-4-yl)amino)cyclopropyl)-N-(3-(trifluoromethyl)phenyl)benzamide hydrochloride]",> 10,4.8,< 0.1
"O=C(Nc1cnn(-c2ccc(F)cc2)c1)c1cccc([C@@H]2C[C@H]2NC2CCS(=O)(=O)CC2)c1 (relative stereo) [Example 197, 3-(trans-2-((1,1-dioxidotetrahydro-2H-thiopyran-4-yl)amino)cyclopropyl)-N-(1-(4-fluorophenyl)-1H-pyrazol-4-yl)benzamide dihydrochloride]",> 10,> 10,< 0.1
"O=C(NCc1ncccc1C(F)(F)F)c1ccc([C@@H]2C[C@H]2NCC2CC2)cc1 (relative stereo) [Example 26, 4-(trans-2-((cyclopropylmethyl)amino)cyclopropyl)-N-((3-(trifluoromethyl)pyridin-2-yl)methyl)benzamide bis(trifluoroacetate)]",> 10,> 10,< 0.1
"O=C(NCc1cccnc1)c1ccc([C@@H]2C[C@H]2NCC2CC2)cc1 (relative stereo) [Example 18, 4-(trans-2-((cyclopropylmethyl)amino)cyclopropyl)-N-(pyridin-3-ylmethyl)benzamide bis(trifluoroacetate)]",> 10,> 10,< 0.1
"O=C(Nc1cnn(Cc2ccc(F)cc2)c1)c1cccc([C@@H]2C[C@H]2NC2CCOCC2)c1 (relative stereo) [Example 217, N-(1-(4-fluorobenzyl)-1H-pyrazol-4-yl)-3-(trans-2-(tetrahydro-2H-pyran-4-ylamino)cyclopropyl)benzamide dihydrochloride]",> 10,> 10,< 0.1
"O=C(Nc1ccc(Cc2ccccc2)cc1)c1cccc([C@@H]2C[C@H]2NCC2CC2)c1 (relative stereo) [Example 129, N-(4-benzylphenyl)-3-(trans-2-((cyclopropylmethyl)amino)cyclopropyl)benzamide trifluoroacetate]",> 10,> 10,< 0.1
"COc1cc(Cl)ccc1CN[C@@H]1C[C@H]1c1ccc(C(=O)NCc2ccccc2)cc1 (relative stereo) [Example 41, N-benzyl-4-(trans-2-((4-chloro-2-methoxybenzyl)amino)cyclopropyl)benzamide trifluoroacetate]",6.6,> 10,< 0.1
"O=C(Nc1ccc(OC(F)(F)F)cc1)c1cccc([C@@H]2C[C@H]2NCC2CC2)c1 (relative stereo) [Example 123, 3-(trans-2-((cyclopropylmethyl)amino)cyclopropyl)-N-(4-(trifluoromethoxy)phenyl)benzamide trifluoroacetate]",> 10,> 10,< 0.1
"CS(=O)(=O)c1ccc(NC(=O)c2cccc([C@@H]3C[C@H]3NCC3CC3)c2)cc1 (relative stereo) [Example 124, 3-(trans-2-((cyclopropylmethyl)amino)cyclopropyl)-N-(4-(methylsulfonyl)phenyl)benzamide trifluoroacetate]",> 10,> 10,< 0.1
"O=C(Nc1cnn(CC2CC2)c1)c1cccc([C@@H]2C[C@H]2NC2CCC2)c1 (relative stereo) [Example 201, 3-(trans-2-(cyclobutylamino)cyclopropyl)-N-(1-(cyclopropylmethyl)-1H-pyrazol-4-yl)benzamide dihydrochloride]",> 10,> 10,< 0.1
